Assay results taken from article doi:10.1101/2025.02.15.638425v1, “Synthesis and Biological Evaluation of Nipecotic Acid Derivatives with Terminally Double-Substituted Allenic Spacers as mGAT4 Inhibitors” (biorxiv, 2025).

Key:
[1] = molecular target: T1, mGAT1 (Mus musculus, UniProt P31648); test: [3H]GABA uptake, intact HEK293 cells; format: cell-based
T1 construct: gene Slc6a1; full-length transporter stably expressed in HEK293 cells
From the text: [3H]GABA uptake, intact HEK293 cells on mGAT1

[2] = molecular target: T1, mGAT1; test: competitive MS Binding Assay, NO711 marker, HEK293 membranes
From the text: competitive MS Binding Assay, NO711 marker, HEK293 membranes on mGAT1

[3] = molecular target: T2, mGAT2 (Mus musculus, UniProt P31651); test: [3H]GABA uptake, intact HEK293 cells; format: cell-based
T2 construct: gene Slc6a12; full-length transporter stably expressed in HEK293 cells; mouse nomenclature, equivalent of hBGT-1
T2 sequence (P31651 1-614): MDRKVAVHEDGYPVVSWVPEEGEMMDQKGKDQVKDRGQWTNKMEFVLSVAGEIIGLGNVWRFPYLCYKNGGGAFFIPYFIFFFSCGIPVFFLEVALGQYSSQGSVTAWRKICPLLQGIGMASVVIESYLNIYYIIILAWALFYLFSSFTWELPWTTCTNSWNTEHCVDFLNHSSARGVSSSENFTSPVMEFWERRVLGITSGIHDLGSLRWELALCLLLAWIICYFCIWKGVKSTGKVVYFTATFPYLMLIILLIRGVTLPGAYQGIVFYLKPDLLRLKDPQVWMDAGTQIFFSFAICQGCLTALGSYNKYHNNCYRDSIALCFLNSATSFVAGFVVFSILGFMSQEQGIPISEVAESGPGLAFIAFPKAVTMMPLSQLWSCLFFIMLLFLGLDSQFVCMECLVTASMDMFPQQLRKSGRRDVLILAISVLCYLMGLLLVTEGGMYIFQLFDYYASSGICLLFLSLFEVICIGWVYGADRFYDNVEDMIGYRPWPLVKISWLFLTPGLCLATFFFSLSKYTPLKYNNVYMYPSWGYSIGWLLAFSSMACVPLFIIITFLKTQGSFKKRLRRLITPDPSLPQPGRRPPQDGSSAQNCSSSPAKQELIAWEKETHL
From the text: [3H]GABA uptake, intact HEK293 cells on mGAT2

[4] = molecular target: T3, mGAT3 (Mus musculus, UniProt P31649); test: [3H]GABA uptake, intact HEK293 cells; format: cell-based
T3 construct: gene Slc6a13; full-length transporter stably expressed in HEK293 cells; mouse nomenclature, equivalent of hGAT-2
T3 sequence (P31649 1-602): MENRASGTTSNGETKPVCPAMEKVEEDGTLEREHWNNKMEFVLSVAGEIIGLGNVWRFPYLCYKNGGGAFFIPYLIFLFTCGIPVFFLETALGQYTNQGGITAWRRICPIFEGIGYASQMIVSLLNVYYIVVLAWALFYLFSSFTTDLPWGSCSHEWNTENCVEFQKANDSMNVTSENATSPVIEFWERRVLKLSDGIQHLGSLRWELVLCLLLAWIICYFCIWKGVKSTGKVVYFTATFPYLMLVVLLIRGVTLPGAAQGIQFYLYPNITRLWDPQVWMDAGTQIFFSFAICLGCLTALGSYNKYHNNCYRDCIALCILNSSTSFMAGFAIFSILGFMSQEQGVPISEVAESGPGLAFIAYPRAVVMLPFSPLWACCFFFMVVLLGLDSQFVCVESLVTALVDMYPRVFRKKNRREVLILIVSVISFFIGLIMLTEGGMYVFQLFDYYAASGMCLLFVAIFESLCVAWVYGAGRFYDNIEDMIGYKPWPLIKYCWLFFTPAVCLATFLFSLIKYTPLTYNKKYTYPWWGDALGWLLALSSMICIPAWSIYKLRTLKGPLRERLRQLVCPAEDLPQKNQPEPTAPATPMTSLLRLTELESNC
From the text: [3H]GABA uptake, intact HEK293 cells on mGAT3

[5] = molecular target: T4, mGAT4 (Mus musculus, UniProt P31650); test: [3H]GABA uptake, intact HEK293 cells; format: cell-based
T4 construct: gene Slc6a11; full-length transporter stably expressed in HEK293 cells
T4 sequence (P31650 1-627): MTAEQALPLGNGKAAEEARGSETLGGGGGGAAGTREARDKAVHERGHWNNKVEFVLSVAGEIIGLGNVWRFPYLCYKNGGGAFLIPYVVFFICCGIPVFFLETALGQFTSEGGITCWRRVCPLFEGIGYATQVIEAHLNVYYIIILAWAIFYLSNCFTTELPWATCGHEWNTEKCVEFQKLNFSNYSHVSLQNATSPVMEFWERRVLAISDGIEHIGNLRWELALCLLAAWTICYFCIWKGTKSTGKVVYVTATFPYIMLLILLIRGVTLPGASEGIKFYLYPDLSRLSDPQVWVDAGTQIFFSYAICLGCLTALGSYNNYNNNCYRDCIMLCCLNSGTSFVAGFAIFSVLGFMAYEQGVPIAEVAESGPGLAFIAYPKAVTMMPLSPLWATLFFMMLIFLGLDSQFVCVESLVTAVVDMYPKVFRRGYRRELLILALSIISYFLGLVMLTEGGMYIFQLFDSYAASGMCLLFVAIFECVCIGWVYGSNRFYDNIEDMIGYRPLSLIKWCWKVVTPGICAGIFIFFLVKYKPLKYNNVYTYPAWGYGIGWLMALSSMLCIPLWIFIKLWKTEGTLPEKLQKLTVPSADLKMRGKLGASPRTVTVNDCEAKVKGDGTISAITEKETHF

[6] = molecular target: T5, hGAT-3 (Homo sapiens, UniProt P48066); test: MS Transport Assay (GABA transport), COS-7 cells; format: cell-based
T5 construct: gene SLC6A11; full-length transporter stably expressed in COS-7 cells
T5 sequence (P48066 1-632): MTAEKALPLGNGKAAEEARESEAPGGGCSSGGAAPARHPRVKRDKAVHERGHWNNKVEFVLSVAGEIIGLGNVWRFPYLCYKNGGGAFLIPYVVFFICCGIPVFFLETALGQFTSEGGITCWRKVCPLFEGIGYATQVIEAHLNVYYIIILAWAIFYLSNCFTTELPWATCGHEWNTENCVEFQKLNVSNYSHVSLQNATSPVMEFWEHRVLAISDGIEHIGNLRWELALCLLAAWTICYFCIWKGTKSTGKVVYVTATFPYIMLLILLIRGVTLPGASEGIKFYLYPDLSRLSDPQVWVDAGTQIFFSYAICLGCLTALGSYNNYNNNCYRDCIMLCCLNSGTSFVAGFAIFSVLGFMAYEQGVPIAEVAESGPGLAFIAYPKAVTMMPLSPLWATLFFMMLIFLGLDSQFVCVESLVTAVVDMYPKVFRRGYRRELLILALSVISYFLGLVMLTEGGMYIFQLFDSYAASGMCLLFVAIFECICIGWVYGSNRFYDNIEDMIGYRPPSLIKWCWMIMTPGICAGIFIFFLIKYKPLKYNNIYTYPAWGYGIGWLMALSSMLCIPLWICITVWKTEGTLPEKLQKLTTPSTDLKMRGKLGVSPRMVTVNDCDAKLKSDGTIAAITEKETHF
From the text: MS Transport Assay (GABA transport), COS-7 cells on hGAT-3

[7] = molecular target: T4, mGAT4; test: [3H]GABA uptake, intact HEK293 cells; format: cell-based; remark: listed apart in the source
From the text: [3H]GABA uptake, intact HEK293 cells on mGAT4

| Compound | IC50 [1] | Ki [2] | IC50 [3] | IC50 [4] | IC50 [5] | IC50 [6] | remaining activity at 100 µM [7] | remaining activity at 100 µM [4] |
| --- | --- | --- | --- | --- | --- | --- | --- | --- |
| O=C(O)[C@@H]1CCCN(CC=C=C(c2ccc(Cl)cc2)c2ccc(Cl)cc2)C1 [(R)-8d] | 0.155 µM | 0.102 µM | 15.8 µM | 4.17 µM | 2 µM | 2.4 µM | – | – |
| Cc1ccc(C(=C=CCN2CCCC(C(=O)O)C2)c2ccc(C)cc2)cc1 (racemic) [rac-8b, rac-[1-(4,4-Di-p-tolylbuta-2,3-dien-1-yl)piperidine-3-carboxylic acid]] | 6.46 µM | 1.38 µM | 27.5 µM | 10.5 µM | 11.5 µM | – | – | – |
| O=C(O)C1CCCN(CCC=C=C(c2ccccc2)c2ccc(-c3ccccc3)cc2)C1 (racemic) [11f, rac-{(Ra)-1-[5-(1,1’-biphenyl-4-yl)-5-phenylpenta-3,4-dien-1-yl]-(3R)-piperidine-3-carboxylic acid} [rac-(3R,Ra)-11f] and rac-{(Sa)-1-[5-(1,1’-biphenyl-4-yl)-5-phenylpenta-3,4-dien-1-yl]-(3R)-piperidine-3-carboxylic acid}] | 4.68 µM | 0.891 µM | 12.3 µM | 10.2 µM | 12.6 µM | 6.17 µM | – | – |
| O=C(O)C1CCCN(CCC=C=C(c2ccc(Cl)cc2)c2ccc(Cl)cc2)C1 (racemic) [rac-11d, rac-{1-[5,5-Bis(4-chlorophenyl)penta-3,4-dien-1-yl]piperidine-3-carboxylic acid}] | 1.91 µM | 0.631 µM | 12 µM | 28.2 µM | 17 µM | – | – | – |
| O=C(O)[C@H]1CCCN(CC=C=C(c2ccc(Cl)cc2)c2ccc(Cl)cc2)C1 [(S)-8d, (S)-1-[4,4-bis(4-chlorophenyl)buta-2,3-dien-1-yl]piperidine-3-carboxylic acid] | 1.35 µM | 2.51 µM | 4.07 µM | 1.1 µM | 0.257 µM | 0.324 µM | – | – |
| O=C(O)C1CCCN(CCC=C=C(c2ccc(F)cc2)c2ccc(F)cc2)C1 (racemic) [rac-11c, rac-{1-[5,5-Bis(4-fluorophenyl)penta-3,4-dien-1-yl]piperidine-3-carboxylic acid}] | 12.9 µM | 3.24 µM | – | – | – | – | 63% | 50% |

Now from value to compound:

| IC50 [1] | Ki [2] | IC50 [3] | IC50 [4] | IC50 [5] | IC50 [6] | remaining activity at 100 µM [7] | remaining activity at 100 µM [4] | Compound |
| --- | --- | --- | --- | --- | --- | --- | --- | --- |
| 14.1 µM | 1.58 µM | 81.3 µM | 58.9 µM | 83.2 µM | – | – | – | Cc1ccc(C(=C=CCCN2CCCC(C(=O)O)C2)c2ccc(C)cc2)cc1 (racemic) [rac-11b, rac-[1-(5,5-Di-p-tolylpenta-3,4-dien-1-yl)piperidine-3-carboxylic acid]] |
| 24.5 µM | 5.5 µM | 178 µM | 129 µM | – | – | 64% | – | O=C(O)C1CCCN(CCC=C=C(c2ccccc2)c2ccccc2)C1 (racemic) [rac-11a, rac-[1-(5,5-Diphenylpenta-3,4-dien-1-yl)piperidine-3-carboxylic acid]] |
| 5.01 µM | 1.23 µM | 6.46 µM | 8.32 µM | 4.47 µM | 1.66 µM | – | – | O=C(O)C1CCCN(CC=C=C(c2ccccc2)c2ccc(-c3ccccc3)cc2)C1 (racemic) [8f, rac-{(Ra)-1-[4-(1,1’-biphenyl-4-yl)-4-phenylbuta-2,3-dien-1-yl]-(3R)-piperidine-3-carboxylic acid} [rac-(3R,Ra)-8f] and rac-{(Sa)-1-[4-(1,1’-biphenyl-4-yl)-4-phenylbuta-2,3-dien-1-yl]-(3R)-piperidine-3-carboxylic acid}] |
| 7.41 µM | 1.17 µM | – | – | – | – | 82% | – | O=C(O)C1CCCN(CC=C=C(c2ccccc2)c2ccccc2)C1 (racemic) [rac-8a, rac-[1-(4,4-Diphenylbuta-2,3-dien-1-yl)piperidine-3-carboxylic acid]] |
| 1.07 µM | 0.562 µM | 79.4 µM | 69.2 µM | 30.2 µM | – | – | – | O=C(O)C1CCCN(CC=C=C(c2ccc(F)cc2)c2ccc(F)cc2)C1 (racemic) [rac-8c, rac-{1-[4,4-Bis(4-fluorophenyl)buta-2,3-dien-1-yl]piperidine-3-carboxylic acid}] |
| 0.372 µM | 0.155 µM | 7.59 µM | 2.95 µM | 0.832 µM | 0.447 µM | – | – | O=C(O)C1CCCN(CC=C=C(c2ccc(Cl)cc2)c2ccc(Cl)cc2)C1 (racemic) [rac-8d] |
| 13.5 µM | 58.9 µM | – | – | – | – | 70% | – | COc1ccc2c(c1)CCCC2=C=CCN1CCCC(C(=O)O)C1 (racemic) [8g, rac-[(Ra)-1-{3-[6-methoxy-3,4-dihydronaphthalen-1(2H)-ylidene]allyl}-(3R)-piperidine-3-carboxylic acid] [rac-(3R,Ra)-8g] and rac-[(Sa)-1-{3-[6-methoxy-3,4-dihydronaphthalen-1(2H)-ylidene]allyl}-(3R)-piperidine-3-carboxylic acid]] |
